In PMC10632401, “Cell-free biosynthesis combined with deep learning accelerates de novo-development of antimicrobial peptides” (Nature Communications, 2023):
Converted amounts (≈) assume the structure as drawn. Read-outs that look alike come from different tables or passages of the source. Residues, ends and D or L forms follow the SMILES beside them. No end group written: not given here.

Legend:
in vitro = settings: human
E. coli MG1655 = settings: MG1655, 20 h
B. subtilis PY79 = settings: PY79, 20 h
[1] = tested on: E. faecium (isolate from the gut of the cow); settings: 20 h
[2] = tested on: A. baumannii (isolate from the human abdominal wall); settings: 20 h
P. aeruginosa DSM 1117 = settings: DSM 1117, 20 h
K. pneumoniae DSM 30104 = settings: DSM 30104, 20 h

| Molecule | CC50 (in vitro) [µM] | E. coli MIC (E. coli MG1655) [µM] | B. subtilis MIC (B. subtilis PY79) [µM] | MIC E. faecium [1] [µM] | CC50 at 24 h (in vitro) [µM] | MIC A. baumannii [2] [µM] | MIC P. aeruginosa (P. aeruginosa DSM 1117) [µM] | MIC K. pneumoniae (K. pneumoniae DSM 30104) [µM] | CC50 [µM] |
| --- | --- | --- | --- | --- | --- | --- | --- | --- | --- |
| CC[C@H](C)[C@H](NC(=O)[C@H](CO)NC(=O)[C@H](CO)NC(=O)[C@H](CO)NC(=O)[C@H](CCCNC(=N)N)NC(=O)[C@@H](NC(=O)[C@H](CO)NC(=O)[C@@H](N)CCSC)[C@@H](C)O)C(=O)N[C@@H](CCCNC(=N)N)C(=O)N[C@@H](CCCNC(=N)N)C(=O)N[C@@H](CC(C)C)C(=O)N[C@H](C(=O)N[C@@H](CCC(=O)O)C(=O)N[C@@H](C)C(=O)N[C@H](C(=O)N[C@@H](CCCNC(=N)N)C(=O)N[C@H](C(=O)N[C@@H](CCCNC(=N)N)C(=O)N[C@@H](Cc1ccccc1)C(=O)N[C@@H](CCCNC(=N)N)C(=O)N[C@@H](C)C(=O)N[C@@H](C)C(=O)N[C@@H](CC(C)C)C(=O)N[C@@H](CCCNC(=N)N)C(=O)N[C@H](C(=O)N[C@H](C(=O)N[C@@H](CC(C)C)C(=O)N[C@@H](Cc1ccccc1)C(=O)N[C@@H](Cc1ccccc1)C(=O)N[C@@H](C)C(=O)N[C@@H](CC(C)C)C(=O)N[C@@H](CCCNC(=N)N)C(=O)N[C@H](C(=O)N[C@H](C(=O)N[C@@H](CCCCN)C(=O)N[C@@H](CCCNC(=N)N)C(=O)N[C@@H](CCCNC(=N)N)C(=O)N1CCC[C@H]1C(=O)N[C@@H](CCCNC(=N)N)C(=O)N[C@@H](CCCNC(=N)N)C(N)=O)[C@@H](C)O)[C@@H](C)O)C(C)C)[C@@H](C)O)[C@@H](C)O)C(C)C)C(C)C [AMP #23] (H-MSTRSSSIRRLVEAVRTRFRAALRTVLFFALRTTKRRPRR-NH2) | 79.1 | 20.8 | 1.6 | – | – | – | – | – | – |
| MNNRGPLGRRFKARRKWKKFVAGKMKKKRKRFKGFKKKGGFTPFVKKFV-NH2 [AMP #3] | – | 12.5 | 0.8 | 1.6 | 68 | 6.3 | – | – | – |
| CC[C@H](C)[C@H](NC(=O)CNC(=O)[C@@H](N)CCSC)C(=O)NCC(=O)N[C@@H](CCCCN)C(=O)N[C@@H](Cc1ccccc1)C(=O)N[C@@H](CCC(N)=O)C(=O)N[C@@H](CCCCN)C(=O)N[C@@H](CCSC)C(=O)N[C@@H](CCCNC(=N)N)C(=O)N[C@@H](Cc1ccccc1)C(=O)N[C@H](C(=O)NCC(=O)N[C@@H](C)C(=O)N[C@H](C(=O)N[C@@H](CCCNC(=N)N)C(=O)N[C@@H](C)C(=O)N[C@@H](CO)C(=O)N[C@@H](CCCCN)C(=O)NCC(=O)N[C@H](C(=O)N[C@@H](C)C(=O)N[C@@H](CCCCN)C(=O)NCC(=O)N[C@@H](CC(C)C)C(=O)N[C@@H](CC(C)C)C(=O)N[C@@H](CCCNC(=N)N)C(=O)N[C@H](C(=O)N[C@@H](C)C(=O)N[C@@H](C)C(=O)N[C@H](C(=O)N[C@@H](CCCNC(=N)N)C(=O)N[C@H](C(=O)NCC(=O)N[C@@H](CCCNC(=N)N)C(=O)N[C@@H](CCCNC(=N)N)C(=O)N[C@@H](C)C(=O)N[C@@H](CC(C)C)C(=O)N[C@H](C(=O)N[C@H](C(N)=O)[C@@H](C)O)[C@@H](C)O)[C@@H](C)O)[C@@H](C)CC)[C@@H](C)CC)C(C)C)[C@@H](C)CC)[C@@H](C)CC [AMP #21] (H-MGIGKFQKMRFIGAIRASKGVAKGLLRIAAIRTGRRALTT-NH2) | – | 10.4 | 0.5 | 6.3 (≈ 27.2 µg/mL) | > 250 | 0.8 (≈ 3.45 µg/mL) | 12.5 (≈ 53.9 µg/mL) | 25.0 (≈ 108 µg/mL) | – |
| CC[C@H](C)[C@H](NC(=O)[C@H](CCCNC(=N)N)NC(=O)[C@H](CCCNC(=N)N)NC(=O)[C@@H](NC(=O)[C@H](C)NC(=O)[C@H](CCC(=O)O)NC(=O)[C@H](CCCCN)NC(=O)[C@H](CCCNC(=N)N)NC(=O)[C@H](CO)NC(=O)[C@H](CCCNC(=N)N)NC(=O)[C@H](CC(C)C)NC(=O)[C@@H](NC(=O)[C@H](CC(N)=O)NC(=O)[C@H](CCCNC(=N)N)NC(=O)[C@@H](NC(=O)[C@H](CCCCN)NC(=O)[C@H](CCSC)NC(=O)[C@@H](N)CCSC)[C@@H](C)CC)[C@@H](C)O)C(C)C)C(=O)N[C@@H](Cc1ccccc1)C(=O)N[C@@H](CO)C(=O)N[C@@H](CC(C)C)C(=O)N[C@@H](CCCNC(=N)N)C(=O)N[C@@H](CCCNC(=N)N)C(=O)N[C@@H](CCCNC(=N)N)C(=O)N[C@@H](CO)C(=O)N[C@H](C(=O)N[C@@H](Cc1ccccc1)C(=O)N[C@H](C(=O)N[C@@H](CCC(=O)O)C(=O)N[C@@H](CCSC)C(=O)N[C@@H](C)C(=O)N[C@@H](CCCNC(=N)N)C(=O)N[C@@H](C)C(=O)N[C@@H](Cc1ccccc1)C(=O)N[C@@H](CCCNC(=N)N)C(=O)N[C@@H](CCCNC(=N)N)C(=O)N[C@@H](Cc1ccccc1)C(=O)N[C@@H](CCCCN)C(=O)N[C@@H](C)C(=O)N[C@@H](CCCNC(=N)N)C(N)=O)[C@@H](C)O)C(C)C [AMP #28] (H-MMKIRNTLRSRKEAVRRIFSLRRRSVFTEMARAFRRFKAR-NH2) | – | 25.0 | 0.4 | 3.1 (≈ 15.6 µg/mL) | 145 | 1.6 (≈ 8.05 µg/mL) | 25.0 (≈ 126 µg/mL) | 12.5 (≈ 62.9 µg/mL) | – |
| MRNFFKKTRLKYKGKKELIKKSRAFGLKTKKRSGFFFPRALKYEEEFY-NH2 [AMP #7] | – | > 100 | 1.6 | – | 133 | – | – | – | – |
| MKAKKWFESLFKTFFKKGKGIYPKSSFEKEKKTDKKKKFGGWVWFKK-NH2 [AMP #16] | – | 6.3 | 0.8 | 1.6 | 39.3 | 1.6 | 12.5 | 2.4 | – |
| MYLKKFLALKNSLKKLSPFKCAVKSWLKKCAEVTFYSKLLGRRGKKDGN-NH2 (cysteines drawn unpaired) [AMP #6] | – | 25.0 | 2.1 | 6.3 | 67.5 | 6.3 | 25.0 | 12.5 | – |
| MLFGSRAKKYGKEAKQEKSFQYPKSSFVACKKKWKRSKHFFKTFKKKVS-NH2 [AMP #1] | – | > 100 | 0.8 | – | 113 | – | – | – | – |
| MGWWFPPKTGNGAGKAFKKAAAAKWGGLFLKAAWFANKGEWGGGFPKGY-NH2 [AMP #9] | – | 25.0 | 3.1 | 6.3 | 146 | – | – | 25.0 | – |
| H-MCFFPRRKSKVKVKGGLCRLLFIFFKTTFCFKAKTKKEIKKGTGKKIVR-NH2 (cysteines drawn unpaired) [AMP #18] | – | 50.0 | 3.1 | – | – | – | – | – | 153 |
| H-MWFDRKKFFWPGVCLFLLFFPKRFYKKGPEKVFSFRKKYKFARKCKCKL-NH2 (cysteines drawn unpaired) [AMP #12] | – | – | – | 12.5 | – | – | 25.0 | 25.0 | – |
